Data from US20040259866A1, “Calcium channel blockers comprising two benzhydril moieties” (priority 1998, published 2004).
Like-named read-outs stand apart in the source and are kept apart here.

Assays:
[1] = target: T1, rat α1B+α2b+β1b channels (N-type channels) (Rattus norvegicus, UniProt Q02294); assay: Block of α1B N-type channels, whole cell patch recordings (Example 6); type: cell-based; conditions: HEK 293, 5 mM barium as charge carrier
T1 construct: expressed in transfected cells
Procedure: Antagonist activity was measured using whole cell patch recordings on human embryonic kidney cells either stably or transiently expressing rat α1B+α2b+β1b channels (N-type channels) with 5 mM barium as a charge carrier.
For transient expression, host cells, such as human embryonic kidney cells, HEK 293 (ATCC# CRL 1573) were grown in standard DMEM medium supplemented with 2 mM glutamine and 10% fetal bovine serum. HEK 293 cells were transfected by a standard calcium-phosphate-DNA coprecipitation method using the rat α1B+β1b+α2δ N-type calcium channel subunits in a vertebrate expression vector (for example, see Current Protocols in Molecular Biology).
After an incubation period of from 24 to 72 hrs the culture medium was removed and replaced with external recording solution (see below). Whole cell patch clamp experiments were performed using an Axopatch 200B amplifier (Axon Instruments, Burlingame, Calif.) linked to an IBM compatible personal computer equipped with pCLAMP software. Borosilicate glass patch pipettes (Sutter Instrument Co., Novato, Calif.) were polished (Microforge, Narishige, Japan) to a resistance of about 4 MΩ when filled with cesium methanesulfonate internal solution (composition in MM: 109 CsCH3SO4, 4 MgCl2, 9 EGTA, 9 HEPES, pH 7.2). Cells were bathed in 5 mM Ba^++ (in mM: 5 BaCl2, 1 MgCl2, 10 HEPES, 40 tetraethylammonium chloride, 10 glucose, 87.5 CsCl pH 7.2). […] Drugs were perfused directly into the vicinity of the cells using a microperfusion system.
Normalized dose-response curves were fit (Sigmaplot 4.0, SPSS Inc., Chicago, Ill.) by the Hill equation to determine IC50 values. Steady-state inactivation curves were plotted as the normalized test pulse amplitude following 5 s inactivating prepulses at +10 mV increments. Inactivation curves were fit (Sigmaplot 4.0) with the Boltzman equation, Ipeak (normalized)=1/(1+exp((V-Vh)z/25.6)), where V and Vh are the conditioning and half inactivation potentials, respectively, and z is the slope factor.
Using the procedure set forth above, various compounds of the invention were tested for their ability to block N-type calcium channels.

[2] = target: T2, human α1G subunits (T-type channels) (Homo sapiens, UniProt O43497); assay: Block of α1G T-type channels, patch clamp in HEK cell lines (Example 8); type: cell-based
T2 construct: expressed in transfected cells
T2 sequence (O43497 whole entry): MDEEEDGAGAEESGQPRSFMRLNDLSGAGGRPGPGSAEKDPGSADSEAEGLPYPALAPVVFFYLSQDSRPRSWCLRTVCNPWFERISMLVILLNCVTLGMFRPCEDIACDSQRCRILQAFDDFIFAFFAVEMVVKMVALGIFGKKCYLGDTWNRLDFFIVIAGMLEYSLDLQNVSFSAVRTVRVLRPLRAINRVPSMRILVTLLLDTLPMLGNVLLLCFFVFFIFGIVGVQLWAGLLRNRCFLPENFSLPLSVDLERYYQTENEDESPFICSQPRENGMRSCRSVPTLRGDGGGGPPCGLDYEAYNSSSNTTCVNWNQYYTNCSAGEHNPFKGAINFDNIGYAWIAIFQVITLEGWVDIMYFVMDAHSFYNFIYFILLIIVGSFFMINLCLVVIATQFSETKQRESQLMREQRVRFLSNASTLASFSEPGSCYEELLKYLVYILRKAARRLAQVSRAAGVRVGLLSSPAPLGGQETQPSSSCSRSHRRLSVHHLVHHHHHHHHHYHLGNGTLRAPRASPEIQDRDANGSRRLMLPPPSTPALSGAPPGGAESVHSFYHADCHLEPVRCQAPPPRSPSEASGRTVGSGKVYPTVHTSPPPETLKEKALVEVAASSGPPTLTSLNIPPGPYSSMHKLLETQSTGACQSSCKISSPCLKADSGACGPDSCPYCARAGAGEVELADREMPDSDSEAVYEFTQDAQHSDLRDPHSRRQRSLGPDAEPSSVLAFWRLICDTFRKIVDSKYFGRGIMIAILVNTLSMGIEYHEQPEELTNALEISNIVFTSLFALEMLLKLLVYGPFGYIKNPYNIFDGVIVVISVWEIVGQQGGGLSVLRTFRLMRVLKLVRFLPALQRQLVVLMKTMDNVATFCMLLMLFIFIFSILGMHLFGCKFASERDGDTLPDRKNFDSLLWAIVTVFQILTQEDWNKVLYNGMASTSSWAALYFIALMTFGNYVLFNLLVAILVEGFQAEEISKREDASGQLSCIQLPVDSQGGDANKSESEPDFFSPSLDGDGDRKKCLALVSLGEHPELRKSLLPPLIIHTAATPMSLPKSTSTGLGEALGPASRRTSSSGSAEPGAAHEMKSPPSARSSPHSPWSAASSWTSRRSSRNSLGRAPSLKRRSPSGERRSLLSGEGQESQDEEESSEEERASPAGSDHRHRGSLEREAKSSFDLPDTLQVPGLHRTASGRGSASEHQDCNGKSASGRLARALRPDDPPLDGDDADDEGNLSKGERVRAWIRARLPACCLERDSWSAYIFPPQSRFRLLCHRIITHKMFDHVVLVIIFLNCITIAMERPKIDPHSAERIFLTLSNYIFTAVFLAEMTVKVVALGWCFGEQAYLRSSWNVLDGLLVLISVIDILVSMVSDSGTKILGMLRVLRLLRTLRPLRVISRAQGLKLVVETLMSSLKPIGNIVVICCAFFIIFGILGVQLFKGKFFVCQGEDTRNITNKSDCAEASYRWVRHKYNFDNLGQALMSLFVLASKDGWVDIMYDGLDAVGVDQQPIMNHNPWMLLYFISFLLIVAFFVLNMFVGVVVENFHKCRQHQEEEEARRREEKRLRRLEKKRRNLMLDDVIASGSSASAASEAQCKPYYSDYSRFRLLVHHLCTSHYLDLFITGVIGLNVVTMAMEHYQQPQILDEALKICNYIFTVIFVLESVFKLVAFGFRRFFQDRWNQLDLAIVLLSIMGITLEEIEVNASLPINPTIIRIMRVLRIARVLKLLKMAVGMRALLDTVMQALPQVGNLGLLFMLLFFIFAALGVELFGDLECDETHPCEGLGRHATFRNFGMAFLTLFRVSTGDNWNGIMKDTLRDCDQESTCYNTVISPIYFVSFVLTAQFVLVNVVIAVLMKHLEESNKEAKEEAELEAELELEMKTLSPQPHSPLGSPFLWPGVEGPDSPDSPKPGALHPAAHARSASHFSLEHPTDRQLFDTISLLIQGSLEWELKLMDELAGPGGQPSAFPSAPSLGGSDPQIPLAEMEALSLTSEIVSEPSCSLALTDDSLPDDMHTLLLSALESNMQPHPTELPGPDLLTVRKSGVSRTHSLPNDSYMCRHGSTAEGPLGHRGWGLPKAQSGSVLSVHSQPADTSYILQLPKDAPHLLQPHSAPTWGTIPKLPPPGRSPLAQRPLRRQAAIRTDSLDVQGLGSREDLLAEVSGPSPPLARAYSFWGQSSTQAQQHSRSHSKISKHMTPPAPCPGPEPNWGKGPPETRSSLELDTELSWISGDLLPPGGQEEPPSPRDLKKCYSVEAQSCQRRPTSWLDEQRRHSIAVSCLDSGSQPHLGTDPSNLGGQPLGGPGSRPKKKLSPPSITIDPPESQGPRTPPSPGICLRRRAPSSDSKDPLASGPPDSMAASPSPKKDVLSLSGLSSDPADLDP
Procedure: Standard patch-clamp techniques were employed to identify blockers of T-type currents. Briefly, previously described HEK cell lines stably expressing human α1G subunits were used for all the recordings (passage #: 4-20, 37° C., 5% CO2). To obtain T-type currents, plastic dishes containing semi-confluent cells were positioned on the stage of a ZEISS AXIOVERT S100 microscope after replacing the culture medium with external solution (see below). Whole-cell patches were obtained using pipettes (borosilicate glass with filament, O.D.: 1.5 mm, I.D.: 0.86 mm, 10 cm length), fabricated on a SUTTER P-97 puller with resistance values of ˜5 MΩ (see below for internal medium).
In the non-inactivating protocol, the holding potential is set at −110 mV and with a pre-pulse at −100 mV for 1 second prior to the test pulse at −40 mV for 50 ms; in the inactivation protocol, the pre-pulse is at approximately −85 mV for 1 second, which inactivates about 15% of the T-type channels, as shown below. [formula]
Test compounds were dissolved in external solution, 0.1-0.01% DMSO. After ˜10 min rest, they were applied by gravity close to the cell using a WPI microfil tubing. The “non-inactivated” pre-pulse was used to examine the resting block of a compound. The “inactivated” protocol was employed to study voltage-dependent block, but the initial data shown below were mainly obtained using the non-inactivated protocol only. IC50 values are shown for various compounds of the invention in Table 5.

rat formalin model = assay: Formalin-induced pain model; type: in vivo; conditions: 30 mg/kg IP, 10 minutes prior to formalin, saline control=100%
Procedure: The effects of intrathecally delivered compounds of the invention on the rat formalin model were measured. The compounds were reconstituted to stock solutions of approximately 10 mg/ml in propylene glycol. Eight Holtsman male rats of 275-375 g size were randomly selected per test compound.
The following study groups were used, with test compounds, vehicle control (propylene glycol) and saline delivered intraperitoneally (IP):
Prior to initiation of drug delivery baseline behavioral and testing data were taken.
On the morning of testing, a small metal band (0.5 g) was loosely placed around the right hind paw. The rat was placed in a cylindrical Plexiglas chamber for adaptation a minimum of 30 minutes. Test compound or vehicle control was administered 10 minutes prior to formalin injection (50 μl of 5% formalin) into the dorsal surface of the right hindpaw of the rat. The animal was then placed into the chamber of the automated formalin apparatus where movement of the formalin injected paw was monitored and the number of paw flinches tallied by minute over the next 60 minutes. (See Malmberg, A. M., and Yaksh, T. L., Anesthesiology (1993) 79:270-281.)
Results are presented as Maximum Possible Effect±SEM, where saline control=100%.

[3] = 0.067 Hz, read-out: Block of α1B N-type Channels IC50, 0.067 Hz
[4] = 0.2 Hz, read-out: Block of α1B N-type Channels IC50, 0.2 Hz
[5] = 80 mV (inactivation protocol), read-out: Block of α1G T-type Channels IC50, 80 mV
[6] = 100 mV (non-inactivating protocol), read-out: Block of α1G T-type Channels IC50, 100 mV
[7] = 100 mV (non-inactivating protocol)

T1 sequence (Q02294 whole entry): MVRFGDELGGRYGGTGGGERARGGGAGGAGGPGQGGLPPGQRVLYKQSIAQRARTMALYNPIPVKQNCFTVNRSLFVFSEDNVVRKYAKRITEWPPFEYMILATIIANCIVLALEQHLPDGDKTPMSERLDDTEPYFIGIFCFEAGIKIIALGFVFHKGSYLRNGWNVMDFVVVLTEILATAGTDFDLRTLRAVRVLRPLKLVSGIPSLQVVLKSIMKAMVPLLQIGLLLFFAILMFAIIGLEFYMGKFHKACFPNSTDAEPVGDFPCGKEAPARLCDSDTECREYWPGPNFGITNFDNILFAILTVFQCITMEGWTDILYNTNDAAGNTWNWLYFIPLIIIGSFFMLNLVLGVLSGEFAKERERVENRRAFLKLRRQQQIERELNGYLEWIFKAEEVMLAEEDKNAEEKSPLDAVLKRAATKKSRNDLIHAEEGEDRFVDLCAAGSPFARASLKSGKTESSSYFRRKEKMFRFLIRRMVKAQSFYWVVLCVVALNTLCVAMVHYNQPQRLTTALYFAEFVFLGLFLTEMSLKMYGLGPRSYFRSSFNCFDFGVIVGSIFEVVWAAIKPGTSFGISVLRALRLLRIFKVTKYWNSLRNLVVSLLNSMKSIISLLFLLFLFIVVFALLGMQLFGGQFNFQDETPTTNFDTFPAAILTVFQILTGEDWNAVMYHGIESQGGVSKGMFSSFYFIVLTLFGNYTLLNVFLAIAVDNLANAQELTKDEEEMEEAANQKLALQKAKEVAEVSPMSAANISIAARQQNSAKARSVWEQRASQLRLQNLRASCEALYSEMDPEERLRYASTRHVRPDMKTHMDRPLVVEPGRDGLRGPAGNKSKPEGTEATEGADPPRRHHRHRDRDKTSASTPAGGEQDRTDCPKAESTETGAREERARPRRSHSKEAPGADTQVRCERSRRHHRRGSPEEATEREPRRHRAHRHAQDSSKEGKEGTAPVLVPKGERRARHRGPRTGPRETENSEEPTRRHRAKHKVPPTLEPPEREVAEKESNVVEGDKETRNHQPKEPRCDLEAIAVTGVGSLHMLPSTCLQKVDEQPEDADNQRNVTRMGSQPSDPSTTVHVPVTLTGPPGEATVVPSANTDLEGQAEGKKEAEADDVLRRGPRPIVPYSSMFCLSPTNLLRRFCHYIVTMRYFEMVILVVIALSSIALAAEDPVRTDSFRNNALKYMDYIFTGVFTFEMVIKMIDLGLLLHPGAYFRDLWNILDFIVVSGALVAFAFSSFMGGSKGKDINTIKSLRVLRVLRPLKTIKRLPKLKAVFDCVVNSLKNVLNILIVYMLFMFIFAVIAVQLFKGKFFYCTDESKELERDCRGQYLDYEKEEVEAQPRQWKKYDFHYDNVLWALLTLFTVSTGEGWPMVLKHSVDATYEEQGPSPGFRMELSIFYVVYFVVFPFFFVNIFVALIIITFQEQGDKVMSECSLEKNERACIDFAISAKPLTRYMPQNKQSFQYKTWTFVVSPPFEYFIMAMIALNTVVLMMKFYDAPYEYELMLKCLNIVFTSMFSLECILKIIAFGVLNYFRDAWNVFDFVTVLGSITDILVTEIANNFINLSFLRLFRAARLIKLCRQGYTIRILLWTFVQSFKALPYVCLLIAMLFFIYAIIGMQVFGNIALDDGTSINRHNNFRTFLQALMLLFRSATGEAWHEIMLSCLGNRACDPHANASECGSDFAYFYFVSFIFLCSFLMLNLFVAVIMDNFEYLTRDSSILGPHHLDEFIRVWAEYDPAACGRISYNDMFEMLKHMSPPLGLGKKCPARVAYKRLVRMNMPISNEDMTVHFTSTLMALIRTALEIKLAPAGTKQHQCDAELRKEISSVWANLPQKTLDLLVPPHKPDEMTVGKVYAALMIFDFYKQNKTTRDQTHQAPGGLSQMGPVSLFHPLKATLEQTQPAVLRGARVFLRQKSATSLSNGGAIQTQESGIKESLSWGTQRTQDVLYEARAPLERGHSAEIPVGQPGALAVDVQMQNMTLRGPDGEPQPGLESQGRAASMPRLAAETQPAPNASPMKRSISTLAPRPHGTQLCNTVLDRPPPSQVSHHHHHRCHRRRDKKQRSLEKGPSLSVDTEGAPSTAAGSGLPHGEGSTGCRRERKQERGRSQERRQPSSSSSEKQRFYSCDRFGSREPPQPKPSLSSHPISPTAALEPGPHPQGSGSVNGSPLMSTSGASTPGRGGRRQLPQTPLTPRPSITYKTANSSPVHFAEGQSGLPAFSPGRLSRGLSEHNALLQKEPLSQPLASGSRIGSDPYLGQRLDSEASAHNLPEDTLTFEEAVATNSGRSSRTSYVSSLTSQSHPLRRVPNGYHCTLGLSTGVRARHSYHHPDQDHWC

| Structure (SMILES) | IC50 [1, 3] [nM] | IC50 [1, 4] [nM] | IC50 [2, 6] [nM] | further results |
| --- | --- | --- | --- | --- |
| O=C(CC(c1ccccc1)c1ccccc1)N1CCN(C(c2ccccc2)c2ccccc2C(F)(F)F)CC1 (centres unmarked) [Compound P22] | 538 | 301 | – | – |
| O=C(CC(c1ccccc1)c1ccccc1)N1CCN(C2c3ccccc3Oc3ccccc32)CC1 [Compound P16] | 290 | 220 | – | – |
| O=C(CC(c1ccccc1)c1ccccc1)N1CCN(C(c2ccccc2)c2ccccc2)C(=O)C1 [Compound P34, 1-Benzhydryl-4-(3,3-diphenyl-propionyl)-piperazin-2-one] | 737 | 680 | – | – |
| O=C(CC(c1ccccc1)c1ccccc1)N1CCN(C(c2ccccc2)c2cc(Cl)cc(Cl)c2)CC1 (centres unmarked) [Compound P9] | 230 | 170 | > 1000 | – |
| O=C(O)C1CN(C(c2ccccc2)c2ccccc2)CCN1C(=O)CC1c2ccccc2-c2ccccc21 (centres unmarked) [Compound P38] | 200 | 160 | 699 | IC50 [2, 5]: 181 nM |
| CC1CN(C(c2ccccc2)c2ccccc2)CCN1C(=O)CC(c1ccccc1)c1ccccc1 (centres unmarked) [Compound P37] | 162 | 24 | 991 | IC50 [2, 5]: 474 nM |
| COc1ccc(C(c2ccc3c(c2)OCO3)N2CCN(C(=O)CC(c3ccccc3)c3ccccc3)CC2)cc1 (centres unmarked) [Compound P26] | 710 | 533 | – | – |
| O=C(CC(c1ccccc1)c1ccccc1)N1CCN(C(c2ccccc2)c2ccc(OCc3ccccc3)cc2)CC1 (centres unmarked) [Compound P17] | 286 | 233 | – | Block of α1G T-type Channels IC50, 100 mV [2, 7]: No effect |
| O=C(CC(c1ccccc1)c1ccccc1)N1CCN(C(c2ccccc2)c2ccc(Cl)cc2Cl)CC1 (centres unmarked) [P29 (HC1)] | > 1000 | > 1000 | – | – |
| O=C(CC(c1ccccc1)c1ccccc1)N1CCN(C2c3ccccc3CCc3ccccc32)CC1 [P32 (HC1)] | > 1000 | 830 | – | – |
| O=C(CC(c1ccccc1)c1ccccc1)N1CCN(C(c2ccccc2)c2cccc(Cl)c2Cl)CC1 (centres unmarked) [Compound P15] | 348 | 217 | 63 | – |
| CCOC(=O)C1CN(C(c2ccccc2)c2ccccc2)CCN1C(=O)CC(c1ccccc1)c1ccccc1 (centres unmarked) [Compound P43] | 167 | 83 | 2380 | IC50 [2, 5]: 279 nM |
| O=C(CC1c2ccccc2-c2ccccc21)N1CCN(C(c2ccccc2)c2ccccc2)CC1 [Compound P33] | – | – | 404 | – |
| O=C(CC(c1ccccc1)c1ccccc1)N1CCN(C(c2ccccc2)c2ccc(Cl)c(Cl)c2)CC1 (centres unmarked) [Compound P30] | > 1000 | > 1000 | > 1000 | – |
| O=C(O)C1CN(C(c2ccccc2)c2ccccc2)CCN1C(=O)CC(c1ccccc1)c1ccccc1 (centres unmarked) [Compound P42] | 1900 | 1490 | – | IC50 [2, 5]: 1840 nM; Block of α1G T-type Channels IC50, 100 mV [2, 7]: no effect |
| COc1cc(C(c2ccccc2)N2CCN(C(=O)CC(c3ccccc3)c3ccccc3)CC2)cc(OC)c1O (centres unmarked) [Compound P21] | 437 | 252 | – | – |
| COc1cc(OC)cc(C(c2ccccc2)N2CCN(C(=O)CC(c3ccccc3)c3ccccc3)CC2)c1 (centres unmarked) [Compound P14] | 320 | 210 | – | – |
| O=C(CN(c1ccccc1)c1ccccc1)N1CCN(C(c2ccccc2)c2cccc(Cl)c2Cl)CC1 (centres unmarked) [Compound P50] | – | – | – | Maximum Possible Effect ± SEM, Phase I (rat formalin model): 60 ± 7%; Maximum Possible Effect ± SEM, Phase II (rat formalin model): 63 ± 10%; Maximum Possible Effect ± SEM, Phase IIA (rat formalin model): 63 ± 13% |
| O=C(CC(c1ccccc1)c1ccccc1)N1CCN(C(c2ccccc2)c2ccccc2OC(F)F)CC1 (centres unmarked) [Compound P12] | 340 | 190 | – | – |

The next lines start with results.

| IC50 [1, 3] [nM] | IC50 [1, 4] [nM] | IC50 [2, 6] [nM] | Structure (SMILES) | further results |
| --- | --- | --- | --- | --- |
| 340 | 320 | 2700 | O=C(CC(c1ccccc1)c1ccccc1)N1CCN(C(c2ccccc2)c2ccc(O)cc2)CC1 (centres unmarked) [Compound P49] | IC50 [2, 5]: 835 nM |
| 300 | 190 | – | O=C(CC(c1ccccc1)c1ccccc1)N1CCN(C(c2ccccc2)c2cc(C(F)(F)F)cc(C(F)(F)F)c2)CC1 (centres unmarked) [P10 (HC1)] | – |
| 420 | 390 | 1010 | CCOC(=O)C1CN(C(c2ccccc2)c2ccccc2)CCN1C(=O)CC(c1ccccc1)c1ccccc1 (centres unmarked) [Compound P41] | IC50 [2, 5]: 363 nM |
| 360 | 249 | 745 | COc1ccc(C(c2ccc(OC)cc2)N2CCN(C(=O)CC(c3ccccc3)c3ccccc3)CC2)cc1 [Compound P19] | – |
| 230 | 220 | 10000 | N#CC1CN(C(c2ccccc2)c2ccccc2)CCN1C(=O)CC(c1ccccc1)c1ccccc1 (centres unmarked) [Compound P45] | IC50 [2, 5]: 833 nM |
| 490 | 310 | – | Cc1ccc(C(c2ccccc2)N2CCN(C(=O)CC(c3ccccc3)c3ccccc3)CC2)cc1 (centres unmarked) [Compound P23] | – |
| 320 | 250 | – | COc1ccc(C(c2ccccc2)N2CCN(C(=O)CC(c3ccccc3)c3ccccc3)CC2)cc1 (centres unmarked) [Compound P20] | – |
| 1090 | 513 | – | COc1cc(C(c2ccccc2)N2CCN(C(=O)CC(c3ccccc3)c3ccccc3)CC2)cc(OC)c1OC (centres unmarked) [Compound P25] | – |
| 300 | 210 | < 1000 | O=C(CC(c1ccccc1)c1ccccc1)N1CCN(C(c2ccccc2)c2c(Cl)cccc2Cl)CC1 (centres unmarked) [Compound P13] | – |
| 240 | 190 | 2200 | CCOC(=O)C1CN(C(c2ccccc2)c2ccccc2)CCN1C(=O)CC1c2ccccc2-c2ccccc21 (centres unmarked) [Compound P39] | IC50 [2, 5]: 768 nM |
| 550 | 450 | – | O=C(CC(c1ccccc1)c1ccccc1)N1CCN(C(c2ccccc2)c2cc(C(F)(F)F)cc(C(F)(F)F)c2)CC1 (centres unmarked) [Compound P10] | – |
| 600 | 380 | – | O=C(CC(c1ccccc1)c1ccccc1)N1CCN(C(c2ccccc2)c2ccc(F)cc2)CC1 (centres unmarked) [Compound P24] | – |
| 854 | 552 | – | O=C(CC(c1ccccc1)c1ccccc1)N1CCN(C2c3ccccc3S(=O)(=O)c3ccccc32)CC1 [Compound P27] | – |
| 370 | 190 | – | CC(C)(C)c1ccc(C(c2ccccc2)N2CCN(C(=O)CC(c3ccccc3)c3ccccc3)CC2)cc1 (centres unmarked) [Compound P11] | – |
| – | – | 371 | O=C(CC(c1ccccc1)c1ccccc1)N1CCN(C2c3ccccc3-c3ccccc32)CC1 [Compound P31] | – |
